Assay results from patent US9944602B2, “Piperidinone herbicides” (E. I. DU PONT DE NEMOURS AND COMPANY, priority 2014, dated 2018).

Legend:
Assay type in all cases: in vivo
[1] = system: sedge, umbrella (small-flower umbrella sedge, Cyperus difformis); experiment: Test B flooded paddy test sedge, umbrella; details: Table B, Flood, 250 g ai/ha, scale 0 to 100
Procedure, shortened: (§1)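 2-leaf plants; flood 3 cm over soil; cpd into paddy water; water depth kept; greenhouse 13–15 d; visual rating vs controls.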

[2] = system: foxtail, giant (giant foxtail, Setaria faberii); experiment: Test A postemergence foxtail, giant; details: 0 to 100 scale, 0 is no effect, 100 is complete control
Procedure, shortened: (§2)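 Visual injury rating, 0–100 scale (0 = no effect, 100 = complete control), versus untreated controls ~10 d after treatment in greenhouse. Pre: directed soil spray onto seeded loam/sand. Post: foliar spray at 2–10 cm, 1–2 leaf stage. Solvent-surfactant formulation.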

[3] = system: foxtail, giant (giant foxtail, Setaria faberii); experiment: Test A preemergence foxtail, giant; details: 0 to 100 scale, 0 no effect, 100 complete control
Procedure, shortened: as §2

[4] = system: blackgrass (Alopecurus myosuroides); experiment: Test A postemergence blackgrass; details: 0 to 100 scale, 0 is no effect, 100 is complete control
Procedure, shortened: as §2

[5] = system: pigweed (Amaranthus retroflexus); experiment: Test A preemergence pigweed; details: 0 to 100 scale, 0 no effect, 100 complete control
Procedure, shortened: as §2

[6] = system: barnyardgrass (Echinochloa crus-galli); experiment: Test B flooded paddy test barnyardgrass; details: Table B, Flood, 250 g ai/ha, scale 0 to 100
Procedure, shortened: as §1

[7] = system: rice (Oryza sativa); experiment: Test B flooded paddy test rice; details: Table B, Flood, 250 g ai/ha, scale 0 to 100
Procedure, shortened: as §1

[8] = system: barnyardgrass (Echinochloa crus-galli); experiment: Test A postemergence barnyardgrass; details: 0 to 100 scale, 0 is no effect, 100 is complete control
Procedure, shortened: as §2

[9] = system: ryegrass, Italian (Italian ryegrass, Lolium multiflorum); experiment: Test A postemergence ryegrass, Italian; details: 0 to 100 scale, 0 is no effect, 100 is complete control
Procedure, shortened: as §2

[10] = system: ryegrass, Italian (Italian ryegrass, Lolium multiflorum); experiment: Test A preemergence ryegrass, Italian; details: 0 to 100 scale, 0 no effect, 100 complete control
Procedure, shortened: as §2

[11] = system: kochia (Kochia scoparia); experiment: Test A preemergence kochia; details: 0 to 100 scale, 0 no effect, 100 complete control
Procedure, shortened: as §2

[12] = system: kochia (Kochia scoparia); experiment: Test A postemergence kochia; details: 0 to 100 scale, 0 is no effect, 100 is complete control
Procedure, shortened: as §2

[13] = system: wheat (Triticum aestivum); experiment: Test A postemergence wheat; details: 0 to 100 scale, 0 is no effect, 100 is complete control
Procedure, shortened: as §2

[14] = system: ragweed (common ragweed, Ambrosia elatior); experiment: Test A postemergence ragweed; details: 0 to 100 scale, 0 is no effect, 100 is complete control
Procedure, shortened: as §2

[15] = system: galium (catchweed bedstraw, Galium aparine); experiment: Test A postemergence galium; details: 0 to 100 scale, 0 is no effect, 100 is complete control
Procedure, shortened: as §2

[16] = system: corn (Zea mays); experiment: Test A postemergence corn; details: 0 to 100 scale, 0 is no effect, 100 is complete control
Procedure, shortened: as §2

[17] = system: barnyardgrass (Echinochloa crus-galli); experiment: Test A preemergence barnyardgrass; details: 0 to 100 scale, 0 no effect, 100 complete control
Procedure, shortened: as §2

[18] = system: ragweed (common ragweed, Ambrosia elatior); experiment: Test A preemergence ragweed; details: 0 to 100 scale, 0 no effect, 100 complete control
Procedure, shortened: as §2

[19] = system: ducksalad (Heteranthera limosa); experiment: Test B flooded paddy test ducksalad; details: Table B, Flood, 250 g ai/ha, scale 0 to 100
Procedure, shortened: as §1

[20] = system: pigweed (Amaranthus retroflexus); experiment: Test A postemergence pigweed; details: 0 to 100 scale, 0 is no effect, 100 is complete control
Procedure, shortened: as §2

Compound: O=C1NCCC(c2cccc(C(F)F)c2)C1C(=O)Nc1ccc(F)c(F)c1F (stereo not drawn) [Compound 47]
- Plant response rating [1]: 0
- Plant response rating, Foxtail, Giant ([2]; 125 g ai/ha): 70
- Plant response rating, Foxtail, Giant ([2]; 500 g ai/ha): 80
- Foxtail, Giant plant response rating ([3]; 125 g ai/ha): 80
- Foxtail, Giant plant response rating ([3]; 500 g ai/ha): 90
- Plant response rating, Blackgrass ([4]; 125 g ai/ha): 0
- Plant response rating, Blackgrass ([4]; 500 g ai/ha): 0
- Pigweed plant response rating ([5]; 125 g ai/ha): 0
- Pigweed plant response rating ([5]; 500 g ai/ha): 0
- Plant response rating [6]: 0
- Plant response rating [7]: 0
- Plant response rating, Barnyardgrass ([8]; 125 g ai/ha): 50
- Plant response rating, Barnyardgrass ([8]; 500 g ai/ha): 90
- Plant response rating, Ryegrass, Italian ([9]; 125 g ai/ha): 0
- Plant response rating, Ryegrass, Italian ([9]; 500 g ai/ha): 20
- Ryegrass, Italian plant response rating ([10]; 125 g ai/ha): 0
- Ryegrass, Italian plant response rating ([10]; 500 g ai/ha): 40
- Kochia plant response rating ([11]; 125 g ai/ha): 0
- Kochia plant response rating ([11]; 500 g ai/ha): 0
- Plant response rating, Kochia ([12]; 125 g ai/ha): 0
- Plant response rating, Kochia ([12]; 500 g ai/ha): 0
- Plant response rating, Wheat ([13]; 125 g ai/ha): 0
- Plant response rating, Wheat ([13]; 500 g ai/ha): 30
- Plant response rating, Ragweed ([14]; 125 g ai/ha): 0
- Plant response rating, Ragweed ([14]; 500 g ai/ha): 0
- Plant response rating, Galium ([15]; 125 g ai/ha): 0
- Plant response rating, Galium ([15]; 500 g ai/ha): 0
- Plant response rating, Corn ([16]; 125 g ai/ha): 0
- Plant response rating, Corn ([16]; 500 g ai/ha): 0
- Barnyardgrass plant response rating ([17]; 125 g ai/ha): 70
- Barnyardgrass plant response rating ([17]; 500 g ai/ha): 90
- Ragweed plant response rating ([18]; 125 g ai/ha): 0
- Ragweed plant response rating ([18]; 500 g ai/ha): 0
- Plant response rating [19]: 50
- Plant response rating, Pigweed ([20]; 125 g ai/ha): 0
- Plant response rating, Pigweed ([20]; 500 g ai/ha): 0

Compound: O=C1NCCC(c2cccc(C(F)F)c2)C1C(=O)Nc1ccccc1F (stereo not drawn) [Compound 48]
- Plant response rating [1]: 0
- Plant response rating, Foxtail, Giant ([2]; 125 g ai/ha): 0
- Plant response rating, Foxtail, Giant ([2]; 500 g ai/ha): 30
- Foxtail, Giant plant response rating ([3]; 125 g ai/ha): 70
- Foxtail, Giant plant response rating ([3]; 500 g ai/ha): 90
- Plant response rating, Blackgrass ([4]; 125 g ai/ha): 0
- Plant response rating, Blackgrass ([4]; 500 g ai/ha): 0
- Pigweed plant response rating ([5]; 125 g ai/ha): 0
- Pigweed plant response rating ([5]; 500 g ai/ha): 0
- Plant response rating [6]: 20
- Plant response rating [7]: 15
- Plant response rating, Barnyardgrass ([8]; 125 g ai/ha): 30
- Plant response rating, Barnyardgrass ([8]; 500 g ai/ha): 80
- Plant response rating, Ryegrass, Italian ([9]; 125 g ai/ha): 0
- Plant response rating, Ryegrass, Italian ([9]; 500 g ai/ha): 0
- Ryegrass, Italian plant response rating ([10]; 125 g ai/ha): 0
- Ryegrass, Italian plant response rating ([10]; 500 g ai/ha): 0
- Kochia plant response rating ([11]; 125 g ai/ha): 0
- Kochia plant response rating ([11]; 500 g ai/ha): 0
- Plant response rating, Kochia ([12]; 125 g ai/ha): 0
- Plant response rating, Kochia ([12]; 500 g ai/ha): 0
- Plant response rating, Wheat ([13]; 125 g ai/ha): 0
- Plant response rating, Wheat ([13]; 500 g ai/ha): 0
- Plant response rating, Ragweed ([14]; 125 g ai/ha): 0
- Plant response rating, Ragweed ([14]; 500 g ai/ha): 0
- Plant response rating, Galium ([15]; 125 g ai/ha): 0
- Plant response rating, Galium ([15]; 500 g ai/ha): 0
- Plant response rating, Corn ([16]; 125 g ai/ha): 0
- Plant response rating, Corn ([16]; 500 g ai/ha): 0
- Barnyardgrass plant response rating ([17]; 125 g ai/ha): 40
- Barnyardgrass plant response rating ([17]; 500 g ai/ha): 90
- Ragweed plant response rating ([18]; 125 g ai/ha): 0
- Ragweed plant response rating ([18]; 500 g ai/ha): 0
- Plant response rating [19]: 60
- Plant response rating, Pigweed ([20]; 125 g ai/ha): 0
- Plant response rating, Pigweed ([20]; 500 g ai/ha): 0
